Data from patent US7625567B1, “Induction of immune responses to isoaspartyl-modified antigens” (Yale University, priority 2001, dated 2009).
Numbered stars: 1 amine (or outer) side, 2 acyl side, 3 side chain; on linkers, the order of the positions; unused ones are H or OH. Square brackets hold non-standard residues; d marks the D form. Ends that are not written are not given here. βAsp = O=C(O)[C@H](CC(=O)[*:2])N[*:1]

Key:
[1] = system: TRP-2 specific CD8 T cells; test: MHC class I (H-2 Kb) TRP-2 tetramer staining of CD8 T cells after immunization; type: in vivo, mice; settings: 50 μg s.c. in CFA, day 14 lymph node cells, 5 day culture with isoaspartyl TRP-2 10 μg/ml
Description: FIG. 9 illustrates that CD8 T cells specific for the TRP-2 peptide are elicited by immunization with isoaspartyl TRP-2 peptide. Mice were immunized subcutaneously with 50 μg of isoaspartyl TRP-2 emulsified in CFA. At day 14 after immunization, lymph node cells were removed and single cell suspensions (4×10^6 cells/ml) were incubated in culture with isoaspartyl TRP-2 peptide (10 μg/ml) for 5 days (37° C., 5% CO2). Living cells were purified by Ficoll-hypaque and incubated with anti-CD8-FITC antibody (Promega Inc.) and MHC class I (H-2 Kb) tetramers linked to PE, as indicated. Tetramer staining was performed with a control, non-specific peptide (SIINFEKL) (SEQ ID NO:4) and with aspartyl and isoaspartyl TRP-2 peptide tetramers, as indicated.

[2] = system: TRP-2 peptide pulsed syngeneic spleen cells; test: In vivo CTL assay: killing of tumor peptide pulsed target cells; set-up: species or system mice; settings: 50 μg in CFA s.c., day 21, 16 hours
Description: In this approach, groups of 6 mice were immunized with isoaspartyl or aspartyl TRP-2 (50 μg in CFA), by subcutaneous route. At day 21 mice were examined for their ability to kill tumor peptide pulsed target cells (in vivo CTL assays) modified by the protocol of Coles, et al. (J. Immunol. 168:834-838 (2002)). In brief, two populations of syngeneic target spleen cells are labeled with low or high concentrations of CFSE (0.5 μM or 5.0 μM CFSE, respectively). Spleen cells labeled with 5.0 μM CFSE are pulsed with isoaspartyl or aspartyl TRP-2 peptide (1 μg/ml) as the in vivo target cell population. Both high CFSE labeled/TRP-2 peptide pulsed and low CFSE labeled/unpulsed spleen cells (1×10^7 cells for each population) are transferred by intravenous route into immunized mice as described above. Mice were sacrificed at 16 hours and in vivo lysis of peptide pulsed targets is defined by flow cytometry technology as: Ratio=% CFSE low/% CFSE high % Specific Killing=[1−(ratio in control immunized/ratio in immunized)×100].

[3] = system: CD8 T cells stimulated with isoaspartyl or aspartyl TRP-2 pulsed APCs; test: CD8 T cell proliferation after immunization with TRP-2 peptide; type: in vivo, C57B1/6 mice; settings: 50 μg peptide s.c. in CFA, day 7 lymph node CD8 T cells
Description: FIG. 7 illustrates that immunization with isoaspartyl TRP-2 peptide elicits CD8 T cells that proliferate in response to stimulation with isoaspartyl or aspartyl TRP-2 peptide. For these studies, C57B1/6 mice are immunized subcutaneously with 50 μg of either isoaspartyl TRP-2 peptide or aspartyl TRP-2 peptide emulsified in complete Freund's adjuvant (CFA). After 7 days, lymph node cells are collected and CD8 T cells are purified by magnetic bead depletion of CD4+, B220+, CD11c+ cells. CD8 T cells (1×10^5) are incubated for 3 days in tissue culture (37° C., 5% CO2) with irradiated splenic antigen presenting cells (APCs; 5×10^5 cells) pulsed with isoaspartyl TRP-2 or aspartyl TRP-2 in the concentrations as indicated.

[4] = system: EL-4 target cells pulsed with TRP-2; test: Cytotoxicity of CD8 T cells from immunized mice against peptide-pulsed EL-4 target cells (Cytotox 96); type: in vivo; settings: 50 μg in CFA s.c.; effector to target ratios 5:1, 10:1, 20:1; EL-4 targets
Description: FIG. 10 illustrates that immunization with isoaspartyl TRP-2 peptide elicits CD8 T cells that kill tumor peptide bearing target cells. Mice were immunized with isoaspartyl or aspartyl TRP-2 (50 μg in CFA), by subcutaneous route. Lymph node cells were expanded in vitro for 5 days with isoaspartyl TRP-2 as described above. After 5 days, purified effector CD8 T cells were mixed with EL-4 target cells pulsed with isoaspartyl TRP-2, aspartyl TRP-2, or unpulsed EL-4 cells, as indicated. Averages of triplicate cultures are reported for effector to target ratios of 5:1, 10:1, and 20:1. Cytotoxicity was performed by commercial non-radioactive methods (Ctyotox 96, Promega, Inc.) according to the manufacturer's instructions. As indicated in the upper panel of FIG. 10, mice immunized with isoaspartyl TR-2 peptide kill up to 35% of TRP-2 pulsed target cells.

[5] = system: B16F10 melanoma cells; test: Anti-tumor antibody response: serum binding to B16F10 cells by flow cytometry; type: in vivo, mice; settings: 50 μg peptide s.c., serum day 28, 1/100 dilution, anti-mouse IgG-FITC
Description: FIG. 8 illustrates that immunization with isoaspartyl TRP-2 elicits anti-tumor antibody responses. Mice were immunized subcutaneously with 50 μg of isoaspartyl or aspartyl TRP-2 peptide, as indicated. Mice were bled at day 28 post immunization. Serum (1/100 dilutions in phosphate buffered saline (PBS)) was incubated with B16F10 melanoma cells (5×10^5 cells) and analyzed by flow cytometry after the detection of bound antibody with anti-mouse IgG-FITC.

[6] = system: B16F10 tumor cells; test: Survival of immunized mice challenged with B16F10 tumor cells; type: in vivo; settings: 50 μg in CFA s.c.; challenge s.c. day 21 with 0.5×10^6 cells; groups of 10 mice
Description: For these studies, groups of 10 mice were immunized with isoaspartyl or aspartyl TRP-2 (50 μg in CFA), by subcutaneous route as described above. Mice were challenged subcutaneously at day 21 with 0.5×10^6 cells. Survival was assessed every 3 days.

[7] = system: B16F10 melanoma tumor masses; test: CD8 T cell influx into B16F10 melanoma tumor tissue (immunohistochemistry); type: in vivo, mice; settings: 50 μg in CFA s.c.; challenge day 21 with 0.5×10^6 B16F10 cells; tumors day 14 after challenge
Description: FIG. 11 illustrates an influx of CD8 T cells into melanoma tumor tissues of mice immunized with isoaspartyl TRP-2 immunized mice. […] For these studies, mice were immunized with isoaspartyl or aspartyl TRP-2 (50 μg in CFA), by subcutaneous route. At day 21, mice were challenged with 0.5×10^6 B16F10 melanoma cells by subcutaneous route. At day 14 after tumor cell challenge, tumor masses were removed and stain for CD8 T cells by conventional immunohistochemistry.

[8] = system: B and T cell compartments; settings: mice immunized with peptide (Mamula et al. 1999); cited from earlier work
[9] = system: B16 melanoma cells; test: Isoaspartyl content of living B16 melanoma cells after adenosine dialdehyde treatment (ISOQUANT assay); type: cell-based, murine; settings: 30 μM adenosine dialdehyde, 48 h
Description: Isoaspartyl residues were detected by the enzyme, protein isoaspartyl methyltransferase, according to the manufacturer's protocol (ISOQUANT™ Protein Deamidation Detection Kit, Promega Corp., Madison, Wis.). In brief, samples and control peptides are incubated 30 min. at 30 C in a reaction mixture containing protein isoaspartyl methyltransferase, [^3H}S-adenosyl-L-methionine, and cold S-adenyl-L-methionine. The reaction is stopped at pH 10 on ice and volatile [^3H]methanol is condensed in the reaction vessel. Fifty μl of sample is adsorbed to a sponge attached to the cap of a scintillation vial. The sample is incubated 60 min. at 40 C to volatize [^3H]methanol into the scintillation mixture and counted for counts/min. […]
Briefly, selected cells, such as B16-F0 melanoma cells, are grown to confluency. The cells are then exposed to trypsin and counted. […] The cells are next harvested using trypsin, washed, and counted. […] Protein concentration is determined in both the supernatant and the pellet. Isoaspartyl generation is determined by ISOQUANT assay described above.
In cell culture, B16 cells were incubated with 30 μM adenosine dialdehyde for 48 h as described above. […] Isoaspartyl content was determined as described above.

[10] = target cells transferred: Asp TRP-2 pulsed
[11] = target cells transferred: Isoasp TRP-2 pulsed

Compound	TRP-2 specific CD8 T cells bound by aspartyl and isoaspartyl TRP-2 tetramers [1]	% Specific Killing [2, 10] [%]	% Specific Killing [2, 11] [%]	CD8 T cell response to stimulation with isoaspartyl or aspartyl TRP-2 peptide [3]	killing of TRP-2 pulsed target cells [4]	anti-tumor antibodies binding B16F10 cells [5]	survival after B16F10 challenge [6]	influx of CD8 T cells into tumor masses [7]	B and T cell response to immunization [8]	isoaspartyl content compared to untreated B16 cells [9]
Isoaspartyl TRP-2: TRP-2 peptide (sequence 181-188) synthesized with an isoaspartyl amino acid modification at residue 183 (SEQ ID NO:3) (VY[βAsp]FFVWL)	profoundly stimulated the growth of CD8 T cells that were bound by aspartyl and isoaspartyl TRP-2 tetramers	56	60	elicits cross reactive T cells that respond to stimulation with either isoaspartyl or aspartyl TRP-2 peptide	up to 35%	effectively bind B16F10 cells	greater survival as compared to mice immunized with aspartyl TRP-2 or CFA control immunizations	significant influx of CD8 T cells		
murine cytochrome c peptide 90-104: murine cytochrome c peptide 90-104, normal aspartyl form (ERADLIAYLKKATNE; UniProt P62897 91-105, looked up, fragment)									no response by the B or T cell compartments	
Aspartyl TRP-2: TRP-2 peptide (sequence 181-188) synthesized with an aspartic acid residue at 183 (SEQ ID NO:2) (VYDFFVWL; Human)	failed to stimulate TRP-2 specific CD8 T cells	5	22	fails to elicit any detectable T cell responses	fail to elicit cytotoxic T cell responses	little or no anti-tumor antibodies are detected		fail to show CD8 T cells in the tumor masses		
Nc1ncnc2c1ncn2C(C=O)OC(C=O)CO (centres unmarked) [adenosine dialdehyde]										enhanced from two to five fold
